Results reported in patent US20240182460A1, “ALLOSTERIC CHROMENONE INHIBITORS OF PHOSPHOINOSITIDE 3-KINASE (PI3K) FOR THE TREATMENT OF DISEASE” (PETRA PHARMA CORPORATION, priority 2022, published 2024).

Legend:
[1] = Metabolic stability and intrinsic clearance in human liver microsomes (MICS); assay type: in vitro ADME; conditions: human, microsomes, pH 7.4
Experimental: Metabolic Stability and Intrinsic Clearance in Liver Microsomes (MICS)
One objective of this assay is to measure in vitro metabolic stability of a test compound in liver microsomes of one or more different species. The concentration of a control compound in the reaction system is evaluated by LC/MS/MS for calculating intrinsic clearance of a test compound and estimating the stability of the control compound and test compound in liver microsomes of one or more different species.
Microsomes (MICS). Human Liver Microsomes (HLM), Monkey Liver Microsomes (MKLM), Dog Liver Microsomes (DLM), Rat Liver Microsomes (RLM), and Mouse Liver Microsomes (MLM) are obtained at a concentration of 20 mg/mL protein from commercial sources and stored in a −80° C. freezer. Prior to use, liver microsomes are removed from the freezer and allowed to thaw in a 37° C. water bath and then stored on wet ice.
Stock Solutions. Test Compound (TC) Stock Solutions are prepared in DMSO at a concentration of 10 mM and stored for later use. Positive Control (PC) Stock Solutions of verapamil·HCL (FW: 491.1 g/mol) in DMSO are prepared at a concentration of 10 mM (4.91 mg/mL), and stored at the condition same as the stock solutions of test compounds.
Phosphate Buffer. Phosphate Buffer (100 mM, pH 7.4) is prepared by combining a Solution A and a Solution B as follows.
To prepare Solution A, 7.098 g of disodium hydrogen phosphate was combined with 500 mL of pure water and sonicated to dissolve. To prepare the Solution B, 3.400 g of potassium dihydrogen phosphate was combined with 250 mL of pure water and sonicated to dissolve. Solution A was placed on a stirrer and Solution B was slowly added into Solution A until the pH reached 7.4.
NADPH Solution. A 10 mM NADPH Solution is prepared by dissolving NADPH (MW: 833.4 g/mol) at 8.334 mg/mL in phosphate buffer (100 mM, pH 7.4).
Microsome Master Solution. A Microsome Master Solution is prepared by adding 6.25 μL microsomes (20 mg/mL) to 216.25 μL Phosphate Buffer (100 mM). The final concentration is Phosphate Buffer (100 mM); microsomes (0.5 mg/mL).
Dilution of Stock Solutions. The TC Stock Solutions (10 mM in DMSO) and the PC Stock Solutions (10 mM in DMSO) are diluted by adding 3 μL of the TC Stock Solution or the PC Stock Solution to 297 μL of 50% acetonitrile/50% water.
Incubation. Two separated experiments were performed as follows. a) With Cofactors (NADPH): 25 μL of 10 mM NADPH was added to the incubations. The final concentrations of
microsomes and NADPH were 0.5 mg/mL and 1 mM, respectively. b) Without Cofactors (NADPH): 25 μL of 100 mM Phosphate buffer was added to the incubations. The final concentration of microsomes was 0.5 mg/mL. The mixture was pre-warmed at 37° C. for 10 minutes.
The reaction was started with the addition of 2.5 μL of 100 μM PC solution or TC solutions.
Verapamil was used as PC in this study. The final concentration of test compound or control compound was 1 μM. The incubation solution was incubated in water batch at 37° C.
Reaction Termination. Aliquots of 30 μL were taken from the reaction solution at 0.5, 5, 15, 30 and 60 minutes and added to plates. The reaction was stopped by the addition of 5 volumes of cold acetonitrile and a solution containing 100 nM alprazolam, 200 nM caffeine and 100 nM tolbutamide.
Sampling. The plates containing the terminated reactions were centrifuged at 4000 rpm for 30 minutes. Supernatant of each compound (40 μL) was transferred into a 96-well analysis plate.
Four compound samples are pooled together into one cassette and diluted by adding 160 μL of pure water. All incubations are performed in duplicate.
Analysis and Data Processing. Quantitative LC-MS analysis is performed, and peak areas are determined from extracted ion chromatograms. Percent parent remaining was calculated from peak area of TC or PC. The slope value, k, is determined by linear regression of the natural logarithm of percent parent remaining vs. incubation time curve. […]

PI3Kα E545K = PI3Kα E545K (Homo sapiens, UniProt P42336, E545K); test: PI3Kα E545K mutant in vitro cell based assay, MDA-MB-361 cells; set-up: MDA-MB-361 (ATCC-HTB-27) cell line (PI3Kα E545K); host or cells: MDA-MB-361; conditions: MDA-MB-361 cell line, 0% FBS, no insulin, 3 hours treatment
PI3Kα E545K, sequence (P42336 whole entry E545K): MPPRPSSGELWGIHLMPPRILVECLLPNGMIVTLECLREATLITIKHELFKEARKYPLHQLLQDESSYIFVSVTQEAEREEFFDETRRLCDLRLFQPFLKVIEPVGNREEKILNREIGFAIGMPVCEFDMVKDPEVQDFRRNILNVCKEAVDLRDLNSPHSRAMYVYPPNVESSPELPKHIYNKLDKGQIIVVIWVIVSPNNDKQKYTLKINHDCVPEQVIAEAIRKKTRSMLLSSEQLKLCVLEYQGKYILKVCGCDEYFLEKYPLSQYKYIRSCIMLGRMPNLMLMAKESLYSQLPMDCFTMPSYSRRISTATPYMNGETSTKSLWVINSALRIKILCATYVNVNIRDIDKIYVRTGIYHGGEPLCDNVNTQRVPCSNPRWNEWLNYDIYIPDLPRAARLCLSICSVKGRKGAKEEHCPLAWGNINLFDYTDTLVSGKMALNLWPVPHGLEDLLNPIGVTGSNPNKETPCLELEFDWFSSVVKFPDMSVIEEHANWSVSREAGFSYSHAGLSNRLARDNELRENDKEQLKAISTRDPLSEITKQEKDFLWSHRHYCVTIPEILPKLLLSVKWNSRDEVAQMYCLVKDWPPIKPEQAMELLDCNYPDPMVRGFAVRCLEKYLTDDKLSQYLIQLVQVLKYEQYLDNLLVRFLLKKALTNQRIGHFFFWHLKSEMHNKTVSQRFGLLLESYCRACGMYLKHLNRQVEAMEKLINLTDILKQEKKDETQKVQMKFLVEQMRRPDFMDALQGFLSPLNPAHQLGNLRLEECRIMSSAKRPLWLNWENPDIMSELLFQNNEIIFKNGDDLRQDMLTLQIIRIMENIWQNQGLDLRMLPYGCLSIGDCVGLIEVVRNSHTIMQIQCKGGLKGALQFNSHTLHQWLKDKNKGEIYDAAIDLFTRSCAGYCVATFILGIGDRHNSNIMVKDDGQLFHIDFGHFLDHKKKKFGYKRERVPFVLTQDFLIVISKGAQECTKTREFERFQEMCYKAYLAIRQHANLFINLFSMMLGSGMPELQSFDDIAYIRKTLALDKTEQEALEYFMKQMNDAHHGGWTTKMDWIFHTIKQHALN
PI3Kα E545K, sequence (P27986 whole entry partner): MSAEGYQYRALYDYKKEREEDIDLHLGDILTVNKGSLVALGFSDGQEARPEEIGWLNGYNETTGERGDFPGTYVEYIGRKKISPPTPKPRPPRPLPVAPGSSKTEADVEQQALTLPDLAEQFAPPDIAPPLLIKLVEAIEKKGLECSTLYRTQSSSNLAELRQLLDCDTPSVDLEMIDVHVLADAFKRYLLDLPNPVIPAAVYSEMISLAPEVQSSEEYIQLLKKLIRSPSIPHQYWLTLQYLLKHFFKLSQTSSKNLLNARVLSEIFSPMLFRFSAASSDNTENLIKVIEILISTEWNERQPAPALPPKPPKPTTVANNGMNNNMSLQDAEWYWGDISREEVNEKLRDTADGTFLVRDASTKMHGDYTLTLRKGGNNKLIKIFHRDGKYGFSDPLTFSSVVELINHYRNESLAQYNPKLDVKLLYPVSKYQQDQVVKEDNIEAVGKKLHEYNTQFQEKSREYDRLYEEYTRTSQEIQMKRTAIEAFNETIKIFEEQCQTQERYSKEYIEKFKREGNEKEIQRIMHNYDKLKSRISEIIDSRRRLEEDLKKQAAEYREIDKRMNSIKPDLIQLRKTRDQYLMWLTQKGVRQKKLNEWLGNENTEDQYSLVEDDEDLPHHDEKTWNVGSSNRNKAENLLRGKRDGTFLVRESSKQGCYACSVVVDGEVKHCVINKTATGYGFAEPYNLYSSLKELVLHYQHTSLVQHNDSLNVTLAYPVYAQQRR
How it was run: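 MDA-MB-361 cells (PI3Kα E545K) seeded in serum-free MEM assay medium without insulin, attached overnight, then treated 3 h with compound (10-point 1:3 series, 0.3% DMSO). AlphaLISA SureFire readout of lysates. IC50 by 4-parameter fit, normalized to DMSO (max) and 1 μM GDC-0032 (min).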

SMILES	microsomal CLint at 1 μM [1] [µL/min/mg]	IC50 (PI3Kα E545K) [nM]
Cc1cc([C@@H](C)Oc2ccc(Cl)nc2S(N)(=O)=O)c2oc(-c3cnn(CC(C)(C)O)c3)c(C)c(=O)c2c1 [Example 2B, 6-Chloro-3-[(1R)-1-[2-[1-(2-hydroxy-2-methyl-propyl)pyrazol-4-yl]-3,6-dimethyl-4-oxo-chromen-8-yl]ethoxy]pyridine-2-sulfonamide]	< 50	< 500
Cc1cc([C@@H](C)Oc2ccc(Cl)nc2S(N)(=O)=O)c2oc(-c3cnn(C[C@@H](C)O)c3)c(C)c(=O)c2c1 [Example 4B, 6-Chloro-3-[(1R)-1-[2-[1-[(2R)-2-hydroxypropyl]pyrazol-4-yl]-3,6-dimethyl-4-oxo-chromen-8-yl]ethoxy]pyridine-2-sulfonamide]	< 50	< 500
Cc1cc([C@@H](C)Oc2ccc(Cl)nc2C(N)=O)c2oc(-c3ccc4nn(C)cc4c3)c(C)c(=O)c2c1 [Example 11A, 6-Chloro-3-[(1R)-1-[3,6-dimethyl-2-(2-methylindazol-5-yl)-4-oxo-chromen-8-yl]ethoxy]pyridine-2-carboxamide]	< 50	< 500
Cc1cc([C@@H](C)Oc2ccc(Cl)nc2S(N)(=O)=O)c2oc(-c3cnc4ccoc4c3)c(C)c(=O)c2c1 [Example 22C, 6-Chloro-3-[(1R)-1-(2-furo[3,2-b]pyridin-6-yl-3,6-dimethyl-4-oxo-chromen-8-yl)ethoxy]pyridine-2-sulfonamide]	< 50	< 500
Cc1cc([C@@H](C)Oc2ccc(F)nc2S(N)(=O)=O)c2oc(-c3ccccc3)c(C)c(=O)c2c1 [Example 74C, 3-[(1R)-1-(3,6-Dimethyl-4-oxo-2-phenyl-chromen-8-yl)ethoxy]-6-fluoro-pyridine-2-sulfonamide]	< 50	< 500
CCn1cc2cc(-c3oc4c([C@@H](C)Oc5ccc(Cl)nc5C(N)=O)cc(C)cc4c(=O)c3C)ccc2n1 [Example 75C, 6-Chloro-3-[(1R)-1-[2-(2-ethylindazol-5-yl)-3,6-dimethyl-4-oxo-chromen-8-yl]ethoxy]pyridine-2-carboxamide]	< 50	< 500
Cc1cc([C@@H](C)Oc2ccc(Cl)nc2C(N)=O)c2oc(-c3cnc(OC(C)C)nc3)c(C)c(=O)c2c1 [Example 79C, 6-Chloro-3-[(1R)-1-[2-(2-isopropoxypyrimidin-5-yl)-3,6-dimethyl-4-oxo-chromen-8-yl]ethoxy]pyridine-2-carboxamide]	< 50	< 500
Cc1cc([C@@H](C)Oc2ccc(Cl)nc2C(N)=O)c2oc(-c3cnc4ccoc4c3)c(C)c(=O)c2c1 [Example 80C, 6-Chloro-3-[(1R)-1-(2-furo[3,2-b]pyridin-6-yl-3,6-dimethyl-4-oxo-chromen-8-yl)ethoxy]pyridine-2-carboxamide]	< 50	< 500
Cc1cc([C@@H](C)Oc2ccc(Cl)cc2S(N)(=O)=O)c2oc(-c3cnn(C)c3)c(C)c(=O)c2c1 [Example 99C, 5-Chloro-2-[(1R)-1-[3,6-dimethyl-2-(1-methylpyrazol-4-yl)-4-oxo-chromen-8-yl]ethoxy]benzenesulfonamide]	< 50	< 500
Cc1cc([C@@H](C)Oc2ccc(Cl)cc2S(N)(=O)=O)c2oc(C3CC3)c(C)c(=O)c2c1 [Example 101C, 5-Chloro-2-[(1R)-1-(2-cyclopropyl-3,6-dimethyl-4-oxo-chromen-8-yl)ethoxy]benzenesulfonamide]	< 50	< 500
Cc1cc([C@@H](C)Oc2ccc(Cl)nc2C(N)=O)c2oc(-c3ccc4[nH]c(=O)ccc4c3)c(C)c(=O)c2c1 [Example 105A, 6-Chloro-3-[(1R)-1-[3,6-dimethyl-4-oxo-2-(2-oxo-1H-quinolin-6-yl)chromen-8-yl]ethoxy]pyridine-2-carboxamide]	< 50	

Further lines, results first:

microsomal CLint at 1 μM [1] [µL/min/mg]	IC50 (PI3Kα E545K) [nM]	SMILES
< 50	< 500	Cc1cc([C@@H](C)Oc2ccc(F)cc2S(N)(=O)=O)c2oc(-c3cnn(C)c3)c(C)c(=O)c2c1 [Example 105C, 2-[(1R)-1-[3,6-Dimethyl-2-(1-methylpyrazol-4-yl)-4-oxo-chromen-8-yl]ethoxy]-5-fluoro-benzenesulfonamide]
< 50		Cc1cc([C@@H](C)Oc2ccc(C#N)cc2C(N)=O)c2oc(-c3ccc4nn(C)cc4c3)c(C)c(=O)c2c1 [Example 108C, 5-Cyano-2-[(1R)-1-[3,6-dimethyl-2-(2-methylindazol-5-yl)-4-oxo-chromen-8-yl]ethoxy]benzamide]
< 50		Cc1cc([C@@H](C)Oc2ccc(Cl)nc2S(N)(=O)=O)c2oc(-c3cnn(CC4(O)CC4)c3)c(C)c(=O)c2c1 [Example 128C, 6-Chloro-3-[(1R)-1-[2-[1-[(1-hydroxycyclopropyl)methyl]pyrazol-4-yl]-3,6-dimethyl-4-oxo-chromen-8-yl]ethoxy]pyridine-2-sulfonamide]
< 50		Cc1cc([C@@H](C)Oc2ccc(Cl)nc2C(N)=O)c2oc(-c3cnc4oc(C)nc4c3)c(C)c(=O)c2c1 [Example 130A, 6-Chloro-3-[(1R)-1-[3,6-dimethyl-2-(2-methyloxazolo[5,4-b]pyridin-6-yl)-4-oxo-chromen-8-yl]ethoxy]pyridine-2-carboxamide]
< 50		CONC(=O)c1nc(Cl)ccc1O[C@H](C)c1cc(C)cc2c(=O)c(C)c(-c3ccc4nn(CCO)cc4c3)oc12 [Example 135C, 6-Chloro-3-[(1R)-1-[2-[2-(2-hydroxyethyl)indazol-5-yl]-3,6-dimethyl-4-oxo-chromen-8-yl]ethoxy]-N-methoxy-pyridine-2-carboxamide]
< 50		Cc1cc([C@@H](C)Oc2ccc(Cl)nc2C(N)=O)c2oc(-c3cnc4nn(C)cc4c3)c(C)c(=O)c2c1 [Example 137A, 6-Chloro-3-[(1R)-1-[3,6-dimethyl-2-(2-methylpyrazolo[3,4-b]pyridin-5-yl)-4-oxo-chromen-8-yl]ethoxy]pyridine-2-carboxamide]
< 50		Cc1cc([C@@H](C)Oc2ccc(Cl)nc2S(C)(=N)=O)c2oc(-c3cnn(C)c3)c(C)c(=O)c2c1 (stereo partly drawn) [Example 147A, 8-[(1R)-1-[[6-Chloro-2-(methylsulfonimidoyl)-3-pyridyl]oxy]ethyl]-3,6-dimethyl-2-(1-methylpyrazol-4-yl)chromen-4-one]
